Experimental data reported in patent US20260015325A1, “ALKOXY HETEROARYL- CARBOXAMIDE OR THIOAMIDE COMPOUNDS” (SYNGENTA CROP PROTECTION AG, priority 2022, published 2026).

Assays:
Type in all cases: in vivo
[1] = test system: Bemisia tabaci (Cotton White Fly); test: Bemisia tabaci (Cotton White Fly): feeding/contact activity, cotton leaf discs; conditions: foliar, 144 h, application rate of 200 ppm, adult white flies on sprayed cotton leaf discs, 6 days after incubation, read-out: mortality
Description: Example B1: Bemisia tabaci (Cotton White Fly): Feeding/Contact Activity
Cotton leaf discs were placed on agar in 24-well microtiter plates and sprayed with aqueous test solutions prepared from 10′000 ppm DMSO stock solutions. After drying the leaf discs were infested with adult white flies. The samples were checked for mortality 6 days after incubation.

[2] = test system: Myzus persicae (Green Peach Aphid); test: Myzus persicae (Green Peach Aphid): systemic activity, pea seedlings; conditions: 144 h, test rate of 24 ppm, systemic, roots of infested pea seedlings in test solution, 6 days, read-out: mortality
Description: Example B7: Myzus persicae (Green Peach Aphid). Systemic Activity
Roots of pea seedlings infested with an aphid population of mixed ages were placed directly into aqueous test solutions prepared from 10′000 DMSO stock solutions. The samples were assessed for mortality 6 days after placing seedlings into test solutions.

[3] = test system: Myzus persicae (Green Peach Aphid); test: Myzus persicae (Green Peach Aphid): feeding/contact activity, sunflower leaf discs; conditions: foliar, 144 h, application rate of 200 ppm, mixed ages on sprayed sunflower leaf discs, 6 days after infestation, read-out: mortality
Description: Example B6: Myzus persicae (Green Peach Aphid): Feeding/Contact Activity
Sunflower leaf discs were placed onto agar in a 24-well microtiter plate and sprayed with aqueous test solutions prepared from 10′000 ppm DMSO stock solutions. After drying, the leaf discs were infested with an aphid population of mixed ages. The samples were assessed for mortality 6 days after infestation.

[4] = test system: Tetranychus urticae (Two-Spotted Spider Mite); test: whole plant or invertebrate; conditions: foliar, 192 h, application rate of 200 ppm, mixed population (mobile stages) on sprayed bean leaf discs, 8 days after infestation, read-out: mortality
Description: Example B11: Tetranychus urticae (Two-Spotted Spider Mite): Feeding/Contact Activity
Bean leaf discs on agar in 24-well microtiter plates were sprayed with aqueous test solutions prepared from 10′000 ppm DMSO stock solutions. After drying the leaf discs were infested with a mite population of mixed ages. The samples were assessed for mortality on mixed population (mobile stages) 8 days after infestation.

[5] = test system: Myzus persicae (Green Peach Aphid); test: Myzus persicae (Green Peach Aphid): intrinsic activity, sucrose solution; conditions: 120 h, test rate of 12 ppm, intrinsic, mixed with sucrose solution under Parafilm, 5 days after infestation, read-out: mortality
From the text: Example B8: Myzus persicae (Green Peach Aphid). Intrinsic Activity
Test compounds prepared from 10′000 ppm DMSO stock solutions were applied by pipette into 24-well microtiter plates and mixed with sucrose solution. The plates were closed with a stretched Parafilm. A plastic stencil with 24 holes was placed onto the plate and infested pea seedlings were placed directly on the Parafilm. The infested plate was closed with a gel blotting paper and another plastic stencil and then turned upside down. The samples were assessed for mortality 5 days after infestation.

[6] = test system: Euschistus heros (Neotropical Brown Stink Bug); test: Euschistus heros (Neotropical Brown Stink Bug), soybean leaves; conditions: 120 h, application rate of 200 ppm, N2 nymphs on sprayed soybean leaves, 5 days after infestation, read-out: effect in at least one of the two categories (mortality or growth inhibition)
Description: Example B4: Euschistus heros (Neotropical Brown Stink Bug)
Soybean leaves on agar in 24-well microtiter plates were sprayed with aqueous test solutions prepared from 10′000 ppm DMSO stock solutions. After drying the leaves were infested with N2 nymphs. The samples were assessed for mortality and growth inhibition in comparison to untreated samples 5 days after infestation.

C[C@@H](COc1cc(C(=O)NC2(C#N)CC2)c(Br)cn1)NS(=O)(=O)C(F)(F)F [Compound P-86, 5-bromo-N-(1-cyanocyclopropyl)-2-[(2S)-2-(trifluoromethylsulfonylamino)propoxy]pyridine-4-carboxamide]
mortality at 200 ppm [1]: ≥ 80%

C[C@@H](COc1cnc(Cl)c(C(=O)NC(C)(C)C#N)c1)NS(=O)(=O)C(F)(F)F [Compound P-57, 2-chloro-N-(1-cyano-1-methyl-ethyl)-5-[(2S)-2-(trifluoromethylsulfonylamino)propoxy]pyridine-3-carboxamide]
mortality at 24 ppm [2]: ≥ 80% | mortality at 200 ppm [1]: ≥ 80% | mortality at 200 ppm [3]: ≥ 80% | mortality at 200 ppm [4]: ≥ 80% | mortality at 12 ppm [5]: ≥ 80%

O=C(NC1CC1)c1cc(OCCNS(=O)(=O)C(F)(F)F)cnc1Cl [Compound P-17, 2-chloro-N-cyclopropyl-5-[2-(trifluoromethylsulfonylamino)ethoxy]pyridine-3-carboxamide]
mortality at 200 ppm [1]: ≥ 80% | mortality at 200 ppm [3]: ≥ 80% | mortality at 12 ppm [5]: ≥ 80%

CC(C)C(=O)OCN([C@@H](C)COc1cnc(Cl)c(C(=O)NC2CC2)c1)S(=O)(=O)C(F)(F)F [Compound P-13, [[(1S)-2-[[6-chloro-5-(cyclopropylcarbamoyl)-3-pyridyl]oxy]-1-methyl-ethyl]-(trifluoromethylsulfonyl)amino]methyl 2-methylpropanoate]
mortality at 24 ppm [2]: ≥ 80% | mortality at 200 ppm [1]: ≥ 80% | mortality at 200 ppm [3]: ≥ 80% | mortality at 200 ppm [4]: ≥ 80% | mortality at 12 ppm [5]: ≥ 80%

Cc1cc(Cl)cnc1NC(=O)c1cc(OC[C@H](C)NS(=O)(=O)C(F)(F)F)cnc1Cl [Compound P-20, 2-chloro-N-(5-chloro-3-methyl-2-pyridyl)-5-[(2S)-2-(trifluoromethylsulfonylamino)propoxy]pyridine-3-carboxamide]
mortality at 200 ppm [1]: ≥ 80% | mortality at 200 ppm [4]: ≥ 80% | mortality at 12 ppm [5]: ≥ 80%

C[C@@H](COc1cnc(Cl)c(C(=O)NC(C)(C)C)c1)NS(=O)(=O)C(F)(F)F [Compound P-11, N-tert-butyl-2-chloro-5-[(2S)-2-(trifluoromethylsulfonylamino)propoxy]pyridine-3-carboxamide]
mortality at 200 ppm [3]: ≥ 80% | mortality at 200 ppm [4]: ≥ 80% | mortality at 12 ppm [5]: ≥ 80%

Cc1cnc(OC[C@H](C)NS(=O)(=O)C(F)(F)F)cc1C(=O)NC1CCN(CC(F)(F)F)C1=O (stereo partly drawn) [Compound P-70, 5-methyl-N-[2-oxo-1-(2,2,2-trifluoroethyl)pyrrolidin-3-yl]-2-[(2S)-2-(trifluoromethylsulfonylamino)propoxy]pyridine-4-carboxamide]
mortality at 200 ppm [1]: ≥ 80% | mortality at 200 ppm [3]: ≥ 80%

Cc1ncc(OC[C@H](C)NS(=O)(=O)C(F)(F)F)cc1C(=O)NC(C)C1CC1 (stereo partly drawn) [Compound P-31, N-(1-cyclopropylethyl)-2-methyl-5-[(2S)-2-(trifluoromethylsulfonylamino)propoxy]pyridine-3-carboxamide]
mortality at 200 ppm [1]: ≥ 80% | mortality at 200 ppm [4]: ≥ 80%

C[C@@H](COc1cnc(Cl)c(C(=O)NC2CC2)c1)NS(=O)(=O)C(F)F [Compound P-10, 2-chloro-N-cyclopropyl-5-[(2S)-2-(difluoromethylsulfonylamino)propoxy]pyridine-3-carboxamide]
mortality at 24 ppm [2]: ≥ 80% | mortality at 200 ppm [4]: ≥ 80% | mortality at 12 ppm [5]: ≥ 80%

COCN([C@@H](C)COc1cnc(C)c(C(=O)NC2CC2)c1)S(=O)(=O)C(F)(F)F [Compound P-61, N-cyclopropyl-5-[(2S)-2-[methoxymethyl (trifluoromethylsulfonyl)amino]propoxy]-2-methyl-pyridine-3-carboxamide]
percent effect (mortality or growth inhibition) at 200 ppm [6]: ≥ 80%

C[C@@H](COc1cc(C(=O)NC2CC2)c(Cl)cn1)NS(=O)(=O)C(F)(F)F [Compound P-87, 5-chloro-N-cyclopropyl-2-[(2S)-2-(trifluoromethylsulfonylamino)propoxy]pyridine-4-carboxamide]
mortality at 200 ppm [3]: ≥ 80% | mortality at 200 ppm [4]: ≥ 80% | mortality at 12 ppm [5]: ≥ 80%

C[C@@H](COc1cnc(Cl)c(C(=O)NC2CON(CC(F)(F)F)C2=O)c1)NS(=O)(=O)C(F)(F)F (stereo partly drawn) [Compound P-54, 2-chloro-N-[3-oxo-2-(2,2,2-trifluoroethyl)isoxazolidin-4-yl]-5-[(2S)-2-(trifluoromethylsulfonylamino)propoxy]pyridine-3-carboxamide]
mortality at 24 ppm [2]: ≥ 80% | mortality at 200 ppm [1]: ≥ 80% | mortality at 200 ppm [3]: ≥ 80% | mortality at 12 ppm [5]: ≥ 80%

C#CCNC(=O)c1cc(OC[C@H](C)NS(=O)(=O)C(F)(F)F)cnc1Cl [Compound P-52, 2-chloro-N-prop-2-ynyl-5-[(2S)-2-(trifluoromethylsulfonylamino)propoxy]pyridine-3-carboxamide]
mortality at 200 ppm [1]: ≥ 80% | mortality at 200 ppm [3]: ≥ 80% | mortality at 200 ppm [4]: ≥ 80%

COCN([C@@H](C)COc1cc(C(=O)NC2(C#N)CC2)c(Br)cn1)S(=O)(=O)C(F)(F)F [Compound P-82, 5-bromo-N-(1-cyanocyclopropyl)-2-[(2S)-2-[methoxymethyl(trifluoromethylsulfonyl)amino]propoxy]pyridine-4-carboxamide]
mortality at 200 ppm [1]: ≥ 80% | mortality at 200 ppm [4]: ≥ 80%

Cc1cnc(OC[C@H](C)NS(=O)(=O)C(F)(F)F)cc1C(=O)NCCOc1ccccc1F [Compound P-71, N-[2-(2-fluorophenoxy)ethyl]-5-methyl-2-[(2S)-2-(trifluoromethylsulfonylamino)propoxy]pyridine-4-carboxamide]
percent effect (mortality or growth inhibition) at 200 ppm [6]: ≥ 80%

C[C@@H](COc1cc(C(=O)NC2CC2)c(Br)cn1)NS(=O)(=O)C(F)(F)F [Compound P-83, 5-bromo-N-cyclopropyl-2-[(2S)-2-(trifluoromethylsulfonylamino)propoxy]pyridine-4-carboxamide]
mortality at 24 ppm [2]: ≥ 80% | mortality at 200 ppm [3]: ≥ 80% | mortality at 12 ppm [5]: ≥ 80%

C[C@@H](COc1cnc(Cl)c(C(=O)NC2CC2)c1)NS(=O)(=O)C(Cl)Cl [Compound P-4, 2-chloro-N-cyclopropyl-5-[(2S)-2-(dichloromethylsulfonylamino)propoxy]pyridine-3-carboxamide]
mortality at 200 ppm [3]: ≥ 80% | mortality at 200 ppm [4]: ≥ 80% | mortality at 12 ppm [5]: ≥ 80%

Cc1ncc(OC[C@H](C)NS(=O)(=O)C(F)(F)F)cc1C(=O)NCc1ccc(Cl)cn1 [Compound P-28, N-[(5-chloro-2-pyridyl)methyl]-2-methyl-5-[(2S)-2-(trifluoromethylsulfonylamino)propoxy]pyridine-3-carboxamide]
mortality at 24 ppm [2]: ≥ 80% | mortality at 200 ppm [1]: ≥ 80%

C[C@@H](COc1cnc(Cl)c(C(=O)Nc2ccccc2)c1)NS(=O)(=O)C(F)(F)F [Compound P-56, 2-chloro-N-phenyl-5-[(2S)-2-(trifluoromethylsulfonylamino)propoxy]pyridine-3-carboxamide]
mortality at 200 ppm [1]: ≥ 80% | mortality at 200 ppm [4]: ≥ 80%

C[C@@H](COc1cnc(Cl)c(C(=O)NCC2(C#N)CC2)c1)NS(=O)(=O)C(F)(F)F [Compound P-46, 2-chloro-N-[(1-cyanocyclopropyl)methyl]-5-[(2S)-2-(trifluoromethylsulfonylamino)propoxy]pyridine-3-carboxamide]
mortality at 200 ppm [1]: ≥ 80% | mortality at 200 ppm [3]: ≥ 80%

Cc1ncc(OC[C@H](C)NS(=O)(=O)C(F)(F)F)cc1C(=O)NC12CC(C1)C2 [Compound P-26, N-(1-bicyclo[1.1.1]pentanyl)-2-methyl-5-[(2S)-2-(trifluoromethylsulfonylamino)propoxy]pyridine-3-carboxamide]
mortality at 24 ppm [2]: ≥ 80% | mortality at 200 ppm [3]: ≥ 80% | mortality at 200 ppm [4]: ≥ 80% | mortality at 12 ppm [5]: ≥ 80%

Cc1cnc(OC[C@H](C)NS(=O)(=O)C(F)(F)F)cc1C(=O)NC12CC(C1)C2 [Compound P-66, N-(1-bicyclo[1.1.1]pentanyl)-5-methyl-2-[(2S)-2-(trifluoromethylsulfonylamino)propoxy]pyridine-4-carboxamide]
percent effect (mortality or growth inhibition) at 200 ppm [6]: ≥ 80%
